From patent US9586943B2, “Bilaterally-substituted tricyclic compounds for the treatment of human immunodeficiency virus type-1 (HIV-1) infection and other diseases” (CENTRO DE INVESTIGACIÓN PRINCIPE FELIPE, priority 2013, dated 2017)
Like-named read-outs stand apart in the source and are kept apart here.

What was measured:
HIV-1 (NL4.3-Ren) = assay: microbe, parasite or virus in culture; type: cell-based; details: for EC50: read-out: EC50 (NL4.3-Ren)
[1] = target: RRE-Rev34-50 interaction (RRE hairpin and frevp); assay: Fluorescence polarization displacement assay of the RRE-Rev34-50 interaction; type: binding, HIV-1
[2] = system: full-length competent HIV-1 clone; assay: microbe, parasite or virus in culture; type: cell-based; details: Human immunodeficiency virus 1, MT2, 48 h, read-out: EC50 post-integration
[3] = Cellular viability (CellTiter Glo); type: cell-based; details: human, MT-2 cells; 48 h, CellTiter Glo; read-out: CC50 (celular viability)
MT-2 cells = assay: Cellular viability (CellTiter Glo); type: cell-based
[4] = target: RRE RNA hairpin (internal loop IIB); assay: SPR analysis of interaction with RRE RNA hairpin; type: binding, HIV-1
TARc hairpin = assay: SPR binding specificity relative to control TARc hairpin; parameters: species or system HIV-1
Protocol: (§1) The interaction of these biphenyl and terphenyl compounds with the RRE RNA hairpin (SEQ. ID. No 1) was analysed using surface plasmon resonance (SPR) experiments(19). In addition to the RRE, two control RREc (SEQ. ID. No 2) and TARc (SEQ. ID. No 3) hairpins were also immobilised on the chips. In the RREc hairpin the internal loop forming the Rev high-affinity binding site is replaced with a G:G opposition, whereas in the TARc hairpin this loop is substituted with the HIV-1 Tat-binding UCU bulge(20). In this way, applicants could simultaneously assess the interaction of each ligand with RRE, RREc and TARc, obtaining important information about binding selectivity. In addition, the SPR methodology allows deduction of binding stoichiometries, which are likewise related to the specificity of the interaction between a ligand and a given RNA species. These are key considerations in the nucleic acid recognition field(4, 5, 14).
(§2) The Surface Plasmon Resonance (SPR) experiments were carried out at 25° C. with a Biacore T100 optical biosensor system, 4-channel streptavidin-derivatized Series S SA chips, and either 10 mM MES (pH 6.25), 150 mM NaCl, 1 mM EDTA and 0.005% P20 or 10 mM HEPES pH 7.4, 150 mM NaCl, 3 mM EDTA and 0.005% P20 aqueous solutions as mobile phases. After immobilizing approximately 300 response units (RU) of the RRE, RREc and TARc RNA hairpins on the chips, the compounds were injected during 10-minute periods at a flow rate of 20 μL/min and at concentrations generally ranging from 0.01 μM to 100.0 μM, and then allowed to dissociate for 10 more minutes. The RNA surfaces were regenerated with solutions containing 0.5 to 1 M NaCl and 10 to 100 mM NaOH, depending on the ligand.
(§3) RNA-ligand SPR equilibrium dissociation constants (Kd) were determined by fitting the sensorgrams to one-site or two-site equations:
[formula] [formula] where RU is the response in the steady-state region of the sensorgrams, C is the concentration of free compound in equilibrium with the complex, RUmax is the maximum response and RI is an offset term accounting for the bulk refractive index contribution of the sample. In these models, Kd, RUmax and RI are adjustable parameters, and the stoichiometry of each binding site was determined by comparing the fitted RUmax values with the predicted ones, calculated from the molecular weights of RNA and compound and the amount of RNA in the flow cell(32). The two-site equation was only utilized if it provided a clear curve-fitting improvement over the one-site model. […] All SPR experiments were double-referenced(33).

HIV-1 LTR promoter = type: cell-based
RREc hairpin = assay: SPR binding specificity relative to control RREc hairpin; parameters: species or system HIV-1
Protocol: as §1, §2, §3
[formula] [formula] where RU is the response in the steady-state region of the sensorgrams, C is the concentration of free compound in equilibrium with the complex, RUmax is the maximum response and RI is an offset term accounting for the bulk refractive index contribution of the sample. In these models, Kd, RUmax and RI are adjustable parameters, and the stoichiometry of each binding site was determined by comparing the fitted RUmax values with the predicted ones, calculated from the molecular weights of RNA and compound and the amount of RNA in the flow cell(32). The two-site equation was only utilized if it provided a clear curve-fitting improvement over the one-site model. The specificity of the RRE interaction was quantified by calculating the Kd(RREc)/Kd(RRE) and […] ratios. All SPR experiments were double-referenced(33).

[5] = system: Escherichia coli (ATCC 53868); assay: Disk diffusion assay (Kirby-Bauer), E. coli; type: cell-based; details: disk potency 20 μg, 8 mm discs, 16-18 hours at 37° C.
[6] = system: Staphilococcus aureus (ATCC 35556); assay: Disk diffusion assay (Kirby-Bauer), S. aureus; type: cell-based; details: disk potency 20 μg, 8 mm discs, 16-18 hours at 37° C.
RRE hairpin = assay: Two-dimensional NMR (TOCSY) titration of the RRE hairpin; type: binding, HIV-1; details: D2O, pH 6.0
RRE-Rev = assay: microbe, parasite or virus in culture; type: cell-based, HIV-1
[7] = Human immunodeficiency virus 1, 48 h
[8] = read-out: IC50 (RRE-Rev 50% inhibitory concentration), fluorescence polarization, 25° C., 60 nM RRE and 10 nM frevp
[9] = 25° C., pH 7.4, high affinity site when two-site model, footnote d compounds: ligand range 0.1-25 μM, read-out: Kd(RRE)
[10] = fluorescence anisotropy, read-out: IC50 (RRE-Rev34-50 inhibition)

Row | Structure (SMILES) | inhibition of HIV-1 replication (in words) (HIV-1 (NL4.3-Ren)) | EC50 (HIV-1 (NL4.3-Ren); [7]) [µM] | IC50 [1, 8] [µM] | EC50 [2] [µM] | CC50 at 48 h [3] [µM] | cellular toxicity (in words) (MT-2 cells) | inhibition of HIV-1 LTR-mediated transcription (in words) (HIV-1 LTR promoter) | disk susceptibility of E. coli (diameter of the inhibition area) [5] | disk susceptibility of S. aureus (diameter of the inhibition area) [6] | Kd [4, 9] [µM] | Kd(TARc)/Kd(RRE) (TARc hairpin; 25° C., pH 7.4) | RRE interaction by NMR chemical shift perturbation (in words) (RRE hairpin) | Kd(RREc)/Kd(RRE) (RREc hairpin; 25° C., pH 7.4) | further results
1 | COc1cc(CCN)c(-c2cc(C)c(-c3cc(CCN)c(OCc4ccccc4)c(CCN)c3)c(C)c2)c(CCN)c1 [IIS-375, 2,2′,2″,2′″-[4″-(Benzyloxy)-4-methoxy-3′,5′-dimethyl-(1,1′:4′,1″-terphenyl)-2,3″,5″,6-tetrayl]tetraethanamine chlorhydrate] | inhibited HIV-1 replication | 24.8 | 32.2 ± 2.3 | 21.4 | > 100 | no cellular toxicity |  |  |  |  |  |  |  | 
2 | COc1cc(CCN)c(-c2ccc(-c3cc(CCN)c(O)c(CCN)c3)c(OC)c2)c(CCN)c1 [IIS-358, 2″,3,5,6″-Tetrakis(2-aminoethyl)-2′,4″-dimethoxy-(1,1′:4′,1″-terphenyl)-4-ol chlorhydrate] |  | > 100 | 808 ± 462 |  | > 100 |  | inhibited transcription of the reporter gene | inactive | inactive |  |  |  |  | Kd ([4]; 25° C., pH 6.3, high affinity site when two-site model, JB-399 and IIS-530: ligand range 0.1-25 μM, read-out: Kd(RRE)): 13 ± 9 µM; Kd(TARc)/Kd(RRE) (TARc hairpin; 25° C., pH 6.3): 6.0; Kd(RREc)/Kd(RRE) (RREc hairpin; 25° C., pH 6.3): 1.9
3 | CCc1cc(-c2c(CCN)cc(OC)cc2CCN)cc(CC)c1-c1cc(CCN)c(O)c(CCN)c1 [IIS-806, 2″,3,5,6″-Tetrakis(2-aminoethyl)-2′,6′-diethyl-4″-methoxy-(1,1′:4′,1″-terphenyl)-4-ol chlorhydrate] | inhibited HIV-1 replication | 64.1 | 56.4 ± 13.5 |  | > 100 | no cellular toxicity |  |  |  | 8.1 ± 1.1 | 1.3 | greatest RNA chemical shift variations | 1.1 | 
4 | CCc1cc(-c2c(CCN)cc(OC)cc2CCN)cc(CC)c1-c1cc(CCN)c(OCc2ccccc2)c(CCN)c1 [IIS-771, 2,2′,2″,2′″-(4″-(benzyloxy)-3′,5′-diethyl-4-methoxy-[1,1′:4′,1″-terphenyl]-2,3″,5″,6-tetrayl)tetraethanamine] | inhibited HIV-1 replication | 42.6 | 77.2 ± 15.5 | > 100 | > 100 | no cellular toxicity |  |  |  | 17.6 ± 1.8 | 1.7 |  | 1.0 | 
5 | NC[C@@H]1O[C@H](O[C@H]2[C@@H](O)[C@H](O[C@@H]3[C@@H](O)[C@H](N)C[C@H](N)[C@H]3O[C@H]3O[C@H](CN)[C@@H](O)[C@H](O)[C@H]3N)O[C@@H]2CO)[C@H](N)[C@@H](O)[C@@H]1O [Neomycin B, neomycin B, reference compound] |  |  |  |  |  |  |  | 15.2 ± 2.1 | 12.8 ± 1.9 |  |  | unspecific |  | Kd ([4]; higher affinity site, read-out: equilibrium dissociation constant Kd (RRE)): 2.4 ± 1.1 µM; Kd(TARc)/Kd(RRE) (TARc hairpin): 2.3; EC50 (HIV-1 (NL4.3-Ren); HIV-1 infection assay, 48 h post-infection): > 100 µM; Ki ([1]; calculated from IC50, assuming one ligand molecule displaces frevp, read-out: Ki inhibition constant): 2 ± 0.2 µM; CC50 (MT-2 cells; 48 h, CellTiter Glo, read-out: CC50 (celular viability)): > 100 µM; Kd(RREc)/Kd(RRE) (RREc hairpin): 0.9
6 | COc1cc(CCN)c(-c2cc(C)c(-c3cc(CCN)c(O)c(CCN)c3)c(C)c2)c(CCN)c1 [IIS-420, 2″,3,5,6″-Tetrakis(2-aminoethyl)-4″-methoxy-2′,6′-dimethyl-(1,1′:4′,1″-terphenyl)-4-ol chlorhydrate] | inhibited HIV-1 replication | 3.4 |  | 5 | > 100 | no cellular toxicity | inhibited transcription of the reporter gene |  |  |  |  | greatest RNA chemical shift variations |  | IC50 (RRE-Rev; Human immunodeficiency virus 1, read-out: IC50 (RRE-Rev), pCMV-Rev 20 ng, pDM628 500 ng/well): 10.4 ± 2.4 µM; IC50 (RRE-Rev; Human immunodeficiency virus 1, read-out: IC50 (RRE-Rev), pCMV-Rev 200 ng, pDM628 500 ng/well): 21.4 ± 6.3 µM; IC50 (RRE-Rev; Human immunodeficiency virus 1, read-out: IC50 (RRE-Rev), pCMV-Rev 500 ng, pDM628 500 ng/well): 50 to 100 µM; IC50 (RRE-Rev; Human immunodeficiency virus 1, read-out: IC50 (Rev-mediated transport of RRE-containing RNA), depends on concentration of Rev-encoding plasmid): 10.4 to 21.4 µM; IC50 [1, 10]: 6.8 µM
7 | CCc1cc(-c2c(CCN)cc(OC)cc2CCN)ccc1-c1cc(CCN)c(OCc2ccccc2)c(CCN)c1 [IIS-758, 2,2′,2″,2′″-[4″-(Benzyloxy)-3′-ethyl-4-methoxy-(1,1′:4′,1″-terphenyl)-2,3″,5″,6-tetrayl]tetraethanamine chlorhydrate] | inhibited HIV-1 replication | 32.3 | 78.1 ± 6.5 | 17 | > 100 | no cellular toxicity | inhibited transcription of the reporter gene |  |  | 16.7 ± 1.6 | 2.0 |  | 1.3 | 
8 | NCCc1cc(-c2cc(CCN)c(O)c(CCN)c2)cc(CCN)c1O [JB-391, 3,3′,5,5′-tetrakis(2-aminoethyl)-[1,1′-biphenyl]-4,4′-diol] |  | 50 to 100 |  | > 100 | > 100 |  |  | inactive | inactive |  |  | unspecific |  | IC50 [1, 10]: 7.7 µM
